Several values for one entry are separate records, joined by “and”; a condition that tells them apart may be missing. Identical values can stand only once.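 In this assay, cells in 96-well plates receive the compound at five concentrations for 48 hours. Endpoints are linearly interpolated between the surrounding concentrations. GI50 is the concentration that inhibits growth by half. TGI is the concentration that stops growth completely.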 Residues, ends and D or L forms follow the SMILES beside them. *: point of attachment. Cbz = O=C(OCc1ccccc1)*
Key:
Assay in all cases: growth of human tumour cells (NCI), 48 h
[1] = tested on: CAKI-1 renal
[2] = tested on: NCI-H522 lung
[3] = tested on: IGROV1 ovarian
[4] = tested on: COLO 205 colon
[5] = tested on: U251 CNS
[6] = tested on: M14 melanoma
[7] = tested on: SNB-75 CNS
[8] = tested on: NCI-H226 lung
[9] = tested on: KM12 colon
[10] = tested on: PC-3 prostate

## O=C(CSSCC(=O)Nc1ccc(Br)cc1)Nc1ccc(Br)cc1
[1]
  TGI: 50.3 µM
[2]
  TGI: 24.8 µM
[3]
  TGI: 39 µM
[4]
  TGI: 74 µM
[5]
  TGI: 27.6 µM
[6]
  TGI: 32.7 µM
[7]
  TGI: 40.1 µM
[8]
  TGI: 31.7 µM
[9]
  TGI: 55.4 µM

## CN(C)CCNC(=O)c1ccc2oc3cc4ccccc4c(=O)n3c2c1
[10]
  GI50: 61.6 µM
  TGI: > 100 µM
[1]
  GI50: 17.1 µM
  TGI: 55.2 µM
[2]
  GI50: 18.1 µM
  TGI: 39.8 µM
[3]
  GI50: 23.1 µM
  TGI: > 100 µM
[4]
  GI50: 32.1 µM
  TGI: > 100 µM
[5]
  GI50: 34.3 µM
  TGI: > 100 µM
[6]
  GI50: 52 µM
  TGI: > 100 µM
[7]
  GI50: 22.9 µM
  TGI: 61.2 µM
[9]
  GI50: 10.5 µM
  TGI: 77.8 µM

## O=[N+]([O-])C=C1c2ccccc2-c2ccccc21
[1]
  TGI: 24.5 µM
[4]
  TGI: 3.33 µM
[6]
  TGI: 25.3 µM
[7]
  TGI: 40.7 µM
[9]
  TGI: 31.7 µM

## CC(C)C[C@@H](C=O)NC(=O)[C@H](CC(C)C)NC(=O)[C@H](CC(C)C)NC(=O)OCc1ccccc1 (Cbz-Leu-Leu-Leu-aldehyde)
[10]
  GI50: 0.479 µM
  TGI: 2.91 µM
[2]
  GI50: 0.212 µM
  TGI: 0.614 µM
[3]
  GI50: 0.444 µM
  TGI: 3.08 µM
[4]
  GI50: 0.404 µM
  TGI: 1.62 µM
[5]
  GI50: 0.332 µM
  TGI: 1.07 µM
[6]
  GI50: 0.338 µM
  TGI: 1.74 µM
[9]
  GI50: 0.281 µM
  TGI: 0.751 µM

## CN(/N=C\c1ccnc2ccccc12)c1ccccc1
[1]
  TGI: 91.7 µM
[2]
  TGI: 41.9 µM
[3]
  TGI: > 100 µM
[4]
  TGI: 39.8 µM
[5]
  TGI: 84.9 µM
[6]
  TGI: 38.2 µM
[7]
  TGI: 94.9 µM
[9]
  TGI: 37.4 µM

## O=C(CC1(O)C(=O)Nc2c(Cl)cc(Cl)cc21)c1ccc(F)cc1 (stereo not given)
[1]
  TGI: > 100 µM
[3]
  TGI: 67.6 µM
[4]
  TGI: 43 µM
[5]
  TGI: 97.1 µM
[6]
  TGI: > 100 µM
[7]
  TGI: 63.8 µM
[8]
  TGI: > 100 µM
[9]
  TGI: > 100 µM

## CC(C)=NNC(=S)NC12CC3CC(CC(C3)C1)C2
[1]
  TGI: > 100 µM
[2]
  TGI: > 100 µM
[3]
  TGI: > 100 µM
[4]
  TGI: > 100 µM
[5]
  TGI: > 100 µM
[6]
  TGI: > 100 µM
[7]
  TGI: > 100 µM
[8]
  TGI: > 100 µM
[9]
  TGI: > 100 µM

## Cc1[nH]nc2ncc(C(=O)N3CCC[C@H]3c3ccc(Cl)cc3)cc12
[10]
  GI50: 45.6 µM
  TGI: > 100 µM
[1]
  GI50: > 100 µM
  TGI: > 100 µM
[2]
  GI50: > 100 µM
  TGI: > 100 µM
[3]
  GI50: 66.1 µM
  TGI: > 100 µM
[5]
  GI50: > 100 µM
  TGI: > 100 µM
[6]
  GI50: > 100 µM
  TGI: > 100 µM
[7]
  GI50: 84.4 µM
  TGI: > 100 µM
[8]
  GI50: 64.1 µM
  TGI: > 100 µM
[9]
  GI50: 51.6 µM
  TGI: > 100 µM

## c1ccc2c(CNCCCCCCCCNCc3cccc4ccccc34)cccc2c1
[1]
  TGI: 5.01 µM
[2]
  TGI: 3.24 µM
[3]
  TGI: 16.2 µM
[4]
  TGI: 3.43 µM
[5]
  TGI: 3.13 µM
[6]
  TGI: 3.18 µM
[7]
  TGI: 3.35 µM
[8]
  TGI: 24.5 µM
[9]
  TGI: 3.24 µM

## COc1cc(/C=C/C(=O)c2c(-c3ccc(F)cc3)nc3sc(C)nn23)cc(OC)c1OC
[1]
  GI50: 3.27 µM
  TGI: 18.2 µM
[2]
  GI50: 1.55 µM
  TGI: 3.19 µM
[3]
  GI50: 2.69 µM
  TGI: 6.71 µM
[4]
  GI50: 1.98 µM
  TGI: 3.77 µM
[5]
  GI50: 2.01 µM
  TGI: 5.45 µM
[6]
  GI50: 3.05 µM
  TGI: 8.1 µM
[7]
  GI50: 2.67 µM
  TGI: 14.6 µM
[8]
  GI50: 2.46 µM
  TGI: 8.3 µM
[9]
  GI50: 1.97 µM
  TGI: 4.59 µM

## Cc1ccc(Sc2ccccc2N)cc1
[1]
  TGI: 67 µM
[2]
  TGI: 38.1 µM
[3]
  TGI: > 100 µM
[4]
  TGI: > 100 µM
[5]
  TGI: > 100 µM
[6]
  TGI: > 100 µM
[7]
  TGI: > 100 µM
[8]
  TGI: 66.4 µM
[9]
  TGI: > 100 µM

## N#CCc1nnc(N)o1
[1]
  TGI: > 100 µM
[2]
  TGI: > 100 µM
[3]
  TGI: > 100 µM
[5]
  TGI: > 100 µM
[6]
  TGI: > 100 µM
[7]
  TGI: > 100 µM
[8]
  TGI: > 100 µM
[9]
  TGI: > 100 µM

## COc1cc(CCC(=O)NC[C@@H](O)c2ccccc2)ccc1O
[10]
  GI50: > 100 µM
  TGI: > 100 µM
[1]
  GI50: > 100 µM
  TGI: > 100 µM
[2]
  GI50: > 100 µM
  TGI: > 100 µM
[3]
  GI50: > 100 µM
  TGI: > 100 µM
[5]
  GI50: > 100 µM
  TGI: > 100 µM
[6]
  GI50: > 100 µM
  TGI: > 100 µM
[7]
  GI50: > 100 µM
  TGI: > 100 µM
[8]
  GI50: > 100 µM
  TGI: > 100 µM
[9]
  GI50: > 100 µM
  TGI: > 100 µM

## O=C1CC(N2C(=O)/C(=C/C(Cl)=C\c3ccc([N+](=O)[O-])cc3)SC2=S)C(=O)N1c1ccc(O)cc1 (stereo not given)
[10]
  GI50: 0.906 µM
  TGI: 2.87 µM
[1]
  GI50: 1.15 µM
  TGI: 2.42 µM
[2]
  GI50: 1.86 µM
  TGI: 4.23 µM
[3]
  GI50: 1.2 µM
  TGI: 2.68 µM
[4]
  GI50: 1.83 µM
  TGI: 5.04 µM
[5]
  GI50: 0.597 µM
  TGI: 2.21 µM
[6]
  GI50: 1.46 µM
  TGI: 3.31 µM
[8]
  GI50: 2.41 µM
  TGI: 6.82 µM
[9]
  GI50: 1.83 µM
  TGI: 4.64 µM

## COC12OCCN(C)C1=CC(=O)C1(C)N=NCC12 (stereo not given)
[1]
  TGI: > 100 µM
[2]
  TGI: > 100 µM
[3]
  TGI: > 100 µM
[4]
  TGI: > 100 µM
[5]
  TGI: > 100 µM
[6]
  TGI: > 100 µM
[7]
  TGI: > 100 µM
[8]
  TGI: > 100 µM
[9]
  TGI: > 100 µM

## COc1ccc(-c2[nH]nc(N)c2-c2cc(OC)c(OC)c(OC)c2)cc1
[10]
  GI50: 0.0367 µM
  TGI: > 100 µM
[1]
  GI50: 0.0506 µM
  TGI: 47.3 µM
[2]
  GI50: < 0.0133 µM
  TGI: 0.62 µM
[3]
  GI50: 0.0591 µM
  TGI: 20.4 µM
[4]
  GI50: 0.0331 µM
  TGI: 0.16 µM
[5]
  GI50: 0.0424 µM
  TGI: > 100 µM
[6]
  GI50: 0.0281 µM
  TGI: 3.46 µM
[8]
  GI50: 0.512 µM
  TGI: > 100 µM
[9]
  GI50: 0.0246 µM
  TGI: 9.79 µM

## CCOC(=O)C1SC(=Nc2ccc(Cl)cc2Cl)N=C1C (stereo not given)
[1]
  TGI: > 100 µM
[2]
  TGI: > 100 µM
[3]
  TGI: > 100 µM
[4]
  TGI: > 100 µM
[5]
  TGI: > 100 µM
[6]
  TGI: > 100 µM
[7]
  TGI: 82 µM
[8]
  TGI: > 100 µM
[9]
  TGI: > 100 µM

## COC(=O)[C@@H](C)C[C@H](Cc1ccccc1)NC(=O)c1csc([C@@H](C[C@H](C(C)C)N(C)C(=O)[C@@H](NC(=O)[C@H]2CCCN2C)C2CC2)OC(C)=O)n1
[10]
  GI50: 0.000545 µM and 0.0025 µM
  TGI: > 25 µM
[2]
  GI50: 0.000223 µM
  TGI: 0.000814 µM
[3]
  GI50: 0.000823 µM and 0.0025 µM
  TGI: > 25 µM
[4]
  GI50: 0.000874 µM and < 0.0025 µM
  TGI: 0.0117 µM and < 0.0025 µM
[5]
  GI50: 0.00287 µM and 0.0025 µM
  TGI: > 25 µM
[7]
  GI50: 0.0025 µM
  TGI: > 25 µM
[8]
  TGI: > 25 µM
[9]
  GI50: 0.00222 µM and 0.0025 µM
  TGI: > 25 µM

From PubChem BioAssay (NCI)
